Measured values reported in patent publication US7301070B2, “Plant fatty acid synthases and use in improved methods for production of medium-chain fatty acids” (Calgene LLC, priority 1997, dated 2007).

Key:
[1] = test system: fatty acid synthesis in Brassica seed extracts; experiment: In vitro fatty acid synthesis assay in seed extracts preincubated with cerulenin; assay type: biochemical
Method: (§1) Seed extracts were prepared from developing seeds of nontransgenic controls or transgenic Brassica expressing chKAS A-2-7 as described in Slabaugh et al. (Plant Journal, 1998 in press) and Leonard et al. (Plant Journal, 1998, in press). In vitro fatty acid synthesis assays were performed as described by Post-Beittenmiller (J. Biol. Chem. (1991), 266:1858-1865). Extracts were concentrated by ammonium sulfate precipitation and desalting using P-6 columns (Bio-Rad, Hercules, Calif.). Reactions (65 μl) contained 0.1M Tris/HCl (pH 8.0), 1 mM dithiothreitol, […] recombinant spinach ACP1, 1 mM NADH, 2 mM NADPH, 50 μM malonyl-CoA, 10 μM [1-^14C]acetyl-CoA (50 mCi/mmol), 1 mg/ml BSA, and 0.25 mg/ml seed protein. Selected seed extracts were preincubated with cerulenin at 23° C. for 10 min. Reaction products were separated on an 18% acrlamide gel containing 2.25M urea, electroblotted onto to nitrocellulose and quntitated by phosporimaging using Image QuaNT software (Molecular Dynamics, Sunnyvale, Calif.). Authentic acyl-ACPs were run in parallel, immunoblotted and finally detected by anti-ACP serum to confirm fatty acid chain lengths.

Ch KAS A-2-7 = experiment: In vitro fatty acid synthesis assay, seed extracts of transgenic Brassica expressing chKAS A-2-7; assay type: biochemical, Cuphea hookeriana; details: conclusion from FIG. 22 data
Method: as §1

Synthase I (KAS I) = details: cited from earlier work
Synthase II (KAS II) = details: higher concentrations than KAS I; cited from earlier work
Synthase III = details: cited from earlier work

Which “inhibition of extension of the spinach-ACP by cerulenin” value ([1]; seed extracts from transgenic lines compared with nontransgenic control Brassica) does the source give for `C/C=C/C/C=C/CCC(=O)[C@H]1O[C@H]1C(N)=O` [cerulenin] here?
The value was “much less inhibited”.

And the “synthesis of longer chain fatty acids after pretreatment of extracts with cerulenin” value ([1]; transgenic (5401-9) and nontransgenic control seed extracts, preincubated at 23° C. for 10 min)?
Its value is “markedly reduced”.

What about the “sensitivity of chKAS A-2-7 to cerulenin” value (Ch KAS A-2-7) of the same molecule?
The value was “cerulenin-resistant”.

And the “concentration of cerulenin at which KAS I is sensitive to inhibition” value (Synthase I (KAS I))?
The value was 1 µM.

And the “concentration of cerulenin at which KAS II is inhibited” value (Synthase II (KAS II))?
Its value is 50 µM.

And the “sensitivity of synthase III to cerulenin inhibition” value (Synthase III)?
Its value is “insensitive to inhibition by cerulenin”.
